According to PubChem BioAssay AID1963853 (Molecular Pharmacology Branch, DTP, NCI, 2024):

System: 266295-075-R-J1-PDC spheroid viability
Assay: Anticancer human tumor 266295-075-R-J1-PDC patient-derived head and neck squamous carcinoma cell line growth inhibition [POLQ]
Settings: spheroids with HUVEC and MSC; for IC50: curve of first compound; for viability, T/C: stronger effect = lower value
Protocol: Multicellular complex tumor spheroid response to Polymerase (POL) inhibitors (novobiocin, ART-558, RP6685) in combination with a variety of drugs and investigational agents in selected tumor cell lines
The POL inhibitors (novobiocin, ART-558, and RP6685) were evaluated both individually and in combination with standard of care and investigational anticancer small molecules within a complex spheroid model of solid tumors. . Complex spheroids include a stromal component modeled by human endothelial cells (HUVEC) and fibroblasts modeled by human mesenchymal stem cells (MSCs). The concentration ranges selected for each drug and investigational agent were based upon clinically achievable concentrations if the clinical Cmax of the agent was known.
Compounds. The drugs and investigational agents: novobiocin (NSC847541), ART-558 (NSC835418), RP-6685 (NSC848927), peposertib (NSC802822), ceralasertib (NSC780249), elimusertib (NSC800525), camonsertib (NSC841442), AZD-1390 (NSC803789), olaparib (NSC753686), talazoparib (NSC767125), rucaparib (NSC756644), sotorasib (NSC818433), MRTX-1133 (NSC836407), SN-38 (NSC673596), topotecan (NSC609699), epotoside (NSC141540), doxorubicin (NSC123127), gemcitabine (NSC613327), 5-fluorouracil (NSC19893), paclitaxel (NSC125973), vemurafenib (NSC761431), MSA-2 (NSC828583), SN-011 (NSC837082), adavosertib (NSC754352), prexasertib (NSC758257), carboplatin (NSC241240) and oxaliplatin (NSC266046), were obtained from the National Cancer Institute (NCI) Developmental Therapeutics Program Chemical Repository (21). The FDA-approved anticancer drug set is available from the Developmental Therapeutics Program at https://dtp.cancer.gov/organization/dscb/obtaining/. […] The stock solutions were prepared in dimethyl sulfoxide (DMSO, Sigma-Aldrich, St. Louis, MO, cat. D2650), except for the platinum compounds which were prepared in saline (Quality Biological, Gaithersburg, MD, cat. 114-055-101), at 800-fold the tested concentration and stored at -70 degrees C prior to their use. All drugs and investigational agents were tested over a range starting from a high concentration at or near the clinical Cmax and decreasing in half-log increments. If the clinical Cmax for an agent had not been determined, the highest concentration tested was 10 microM, except for SN-38, which was tested at a high concentration of 1 microM.
Cell Culture. All cells were maintained in an incubator at 37 degrees C and 5% CO2 with 95% humidity. The PDC lines were cultured according to standard operating procedures established by the NCI PDMR (https://pdmr.cancer.gov). Table 3 of the manuscript, lists the cell lines along with the number of the three cell types plated to form the mct-spheroids and media for tumor cell growth. After thawing, all PDC lines, except 997537-175-T-J1-PDC and 415267-285-R-J2-PDC, were cultured in Matrigel-coated flasks prepared with a working solution of 1X Ham's F-12 nutrient mix, without supplementation (Thermo Fisher Scientific, cat. 11765054), 100 U/mL penicillin-streptomycin (Thermo Fisher Scientific, cat. 15140122), and 2.5% Matrigel (Corning Inc., Corning, NY, cat. 354248) for the first three passages. The two PDC lines 997537-175-T-J1-PDC and 415267-285-R-J2-PDC were cultured on uncoated flasks. The 857933-349-R-J2-PDC line was cultured in 6C/Colon 1B media containing advanced DMEM/F-12 (Thermo Fisher Scientific, cat. 12634028), 10 mM HEPES (Thermo Fisher Scientific, cat. 15630080), 1X GlutaMAX supplement (Thermo Fisher Scientific, cat. 35050061), 0.1 mg/mL primocin (InvivoGen, San Diego, CA, cat. ant-pm-2), 10% defined fetal bovine serum, heat inactivated (HyClone Laboratories Inc., Logan, UT, cat. SH30070.03HI), 50% L-WRN conditioned media (ATCC, cat. CRL-3276), 1.25 mM N-Acetyl-L-cysteine (Sigma-Aldrich, cat. A9165), 10 mM nicotinamide (Sigma-Aldrich, cat. N0636), 1X B-27 supplement (Thermo Fisher Scientific, cat. 17504044), 1X N-2 supplement (Thermo Fisher Scientific, cat. […]

[1] = second compound 0.0316 µM, first compound 0.00316 µM
[2] = second compound 0.0316 µM, first compound 0.01 µM
[3] = second compound 0.0316 µM, first compound 0.0316 µM
[4] = second compound 0.0316 µM, first compound 0.1 µM
[5] = second compound 0.1 µM, first compound 0.00316 µM
[6] = second compound 0.1 µM, first compound 0.01 µM
[7] = second compound 0.1 µM, first compound 0.0316 µM
[8] = second compound 0.1 µM, first compound 0.1 µM
[9] = second compound 0.316 µM, first compound 0.00316 µM
[10] = second compound 0.316 µM, first compound 0.01 µM
[11] = second compound 0.316 µM, first compound 0.0316 µM
[12] = second compound 0.316 µM, first compound 0.1 µM
[13] = second compound 1 µM, first compound 0.00316 µM
[14] = second compound 1 µM, first compound 0.01 µM
[15] = second compound 1 µM, first compound 0.0316 µM
[16] = second compound 1 µM, first compound 0.1 µM
[17] = second compound 3.16 µM, first compound 0.00316 µM
[18] = second compound 3.16 µM, first compound 0.01 µM
[19] = second compound 3.16 µM, first compound 0.0316 µM
[20] = second compound 3.16 µM, first compound 0.1 µM
[21] = second compound 10 µM, first compound 0.00316 µM
[22] = second compound 10 µM, first compound 0.01 µM
[23] = second compound 10 µM, first compound 0.0316 µM
[24] = second compound 10 µM, first compound 0.1 µM
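Note: spheroids exposed to compounds for seven days before readout.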

Compound `C=CCn1c(=O)c2cnc(Nc3ccc(N4CCN(C)CC4)cc3)nc2n1-c1cccc(C(C)(C)O)n1` + COC1C(OC(N)=O)C(O)C(Oc2ccc3c(O)c(NC(=O)c4ccc(O)c(CC=C(C)C)c4)c(=O)oc3c2C)OC1(C)C has an IC50 (second compound 0.0316 µM) of over 1 µM, an IC50 (second compound 0.1 µM) of over 1 µM and an IC50 (second compound 0.316 µM) of over 1 µM. It also gave an IC50 (second compound 1 µM) of over 1 µM, an IC50 (second compound 3.16 µM) of over 1 µM and an IC50 (second compound 10 µM) of over 1 µM. It also gave a viability, T/C [1] of 106%, a viability, T/C [2] of 111% and a viability, T/C [3] of 103%. The viability, T/C [4] was 102%, the viability, T/C (second compound 0.0316 µM, first compound 0.316 µM) was 91.4% and the viability, T/C (second compound 0.0316 µM, first compound 1 µM) was 65.5%. It also gave a viability, T/C [5] of 112%, a viability, T/C [6] of 94.6% and a viability, T/C [7] of 82.5%. It also gave a viability, T/C [8] of 82.7%, a viability, T/C (second compound 0.1 µM, first compound 0.316 µM) of 77.2% and a viability, T/C (second compound 0.1 µM, first compound 1 µM) of 95.6%. For the same compound, the viability, T/C [9] was 102%, the viability, T/C [10] was 93.8% and the viability, T/C [11] was 95%. It also gave a viability, T/C [12] of 104%, a viability, T/C (second compound 0.316 µM, first compound 0.316 µM) of 87.4% and a viability, T/C (second compound 0.316 µM, first compound 1 µM) of 70.6%. The viability, T/C [13] was 97.1%, the viability, T/C [14] was 85.9% and the viability, T/C [15] was 92%. For the same compound, the viability, T/C [16] was 95.8%, the viability, T/C (second compound 1 µM, first compound 0.316 µM) was 91.3% and the viability, T/C (second compound 1 µM, first compound 1 µM) was 66.3%. It also gave a viability, T/C [17] of 96%, a viability, T/C [18] of 90.8% and a viability, T/C [19] of 96.7%. For the same compound, the viability, T/C [20] was 98.3%, the viability, T/C (second compound 3.16 µM, first compound 0.316 µM) was 88.6% and the viability, T/C (second compound 3.16 µM, first compound 1 µM) was 65.3%. The viability, T/C [21] was 104%, the viability, T/C [22] was 88.9% and the viability, T/C [23] was 102%. For the same compound, the viability, T/C [24] was 87.2%, the viability, T/C (second compound 10 µM, first compound 0.316 µM) was 87% and the viability, T/C (second compound 10 µM, first compound 1 µM) was 73.4%.

Work on `Cn1ncnc1[C@H]1c2n[nH]c(=O)c3cc(F)cc(c23)N[C@@H]1c1ccc(F)cc1` + COC1C(OC(N)=O)C(O)C(Oc2ccc3c(O)c(NC(=O)c4ccc(O)c(CC=C(C)C)c4)c(=O)oc3c2C)OC1(C)C yielded an IC50 (second compound 0.0316 µM) of over 0.1 µM, an IC50 (second compound 0.1 µM) of over 0.1 µM and an IC50 (second compound 0.316 µM) of over 0.1 µM. It also gave an IC50 (second compound 1 µM) of over 0.1 µM, an IC50 (second compound 3.16 µM) of over 0.1 µM and an IC50 (second compound 10 µM) of over 0.1 µM. The viability, T/C (second compound 0.0316 µM, first compound 0.000316 µM) was 85%, the viability, T/C (second compound 0.0316 µM, first compound 0.001 µM) was 97.4% and the viability, T/C [1] was 93%. For the same compound, the viability, T/C [2] was 99.9%, the viability, T/C [3] was 85.9% and the viability, T/C [4] was 97.1%. It also gave a viability, T/C (second compound 0.1 µM, first compound 0.000316 µM) of 97.9%, a viability, T/C (second compound 0.1 µM, first compound 0.001 µM) of 92.7% and a viability, T/C [5] of 70.2%. For the same compound, the viability, T/C [6] was 98.5%, the viability, T/C [7] was 93.4% and the viability, T/C [8] was 79.9%. The viability, T/C (second compound 0.316 µM, first compound 0.000316 µM) was 106%, the viability, T/C (second compound 0.316 µM, first compound 0.001 µM) was 87.5% and the viability, T/C [9] was 97.6%. The viability, T/C [10] was 103%, the viability, T/C [11] was 86% and the viability, T/C [12] was 83.2%. The viability, T/C (second compound 1 µM, first compound 0.000316 µM) was 97.2%, the viability, T/C (second compound 1 µM, first compound 0.001 µM) was 86.3% and the viability, T/C [13] was 88.6%. For the same compound, the viability, T/C [14] was 83.7%, the viability, T/C [15] was 93.4% and the viability, T/C [16] was 78.9%. It also gave a viability, T/C (second compound 3.16 µM, first compound 0.000316 µM) of 86%, a viability, T/C (second compound 3.16 µM, first compound 0.001 µM) of 106% and a viability, T/C [17] of 87.2%. For the same compound, the viability, T/C [18] was 84.5%, the viability, T/C [19] was 94.3% and the viability, T/C [20] was 80.5%. For the same compound, the viability, T/C (second compound 10 µM, first compound 0.000316 µM) was 101%, the viability, T/C (second compound 10 µM, first compound 0.001 µM) was 80.8% and the viability, T/C [21] was 86.9%. It also gave a viability, T/C [22] of 104%, a viability, T/C [23] of 88.7% and a viability, T/C [24] of 83.2%.
